Here are results for 43 molecules from patent publication US8916702B2 (priority 2012, dated 2014).

The assay has as its system HCV pseudoparticles (genotype 1a HCV E1 and E2 envelope, H77C isolate). Put plainly: microbe, parasite or virus in culture. The assay is classed as cell-based.
The mark [1] stands for this setting: Hepatitis C virus, Huh-7, 48 h, read-out: Activity (EC50 class), HCV pseudoparticle infection of Huh7 cells, luciferase 2 days after infection, EC50 expressed as class A/B.
Where [2] appears, read: Hepatitis C virus, Huh-7, 48 h, read-out: Activity (EC50 class), HCV pseudoparticles, Huh7 cells, luciferase 2 days after infection, average of duplicates.
Where [3] appears, read: Hepatitis C virus, Huh-7, 48 h, HCV pseudoparticle infection of Huh7 cells, luciferase 2 days after infection, average of duplicates.
[4] abbreviates: Hepatitis C virus, Huh-7, read-out: Activity (EC50 class), HCV pseudoparticles (genotype 1a, H77C) in Huh7 cells, EC50 expressed as class A/B.

Where two headings read alike, the source gives them in different places.

Usually EC50 stands for the midpoint of the concentration-response curve. For `Cn1ccnc1NC(=O)C(=O)NC[C@H](NC(=O)c1ccc(Nc2nc(NC3(c4ccc(Cl)cc4)CC3)nc(OCC(F)(F)F)n2)cc1)C(=O)O` [Compound 1352], the EC50 under setting [1] was 0.01 to 10 nM.
As for `CC(C)(CNC(=O)C(=O)Nc1ccc(C#N)cc1)CNC(=O)c1ccc(Nc2nc(NC3(c4ccc(Cl)cc4)CC3)nc(OCc3ccccc3F)n2)cc1` [Compound 3853], under setting [2], the EC50 was in the range of 0.01 to 10 nM.
Consider `COC(=O)[C@H](CNC(=O)C(=O)NCC1CCOCC1)NC(=O)c1ccc(Nc2nc(NC3(c4ccc(Cl)cc4)CC3)nc(OCC(F)(F)F)n2)cc1` [Compound 1456], for which the EC50 under setting [3] is 3.45 nM and the EC50 under setting [1] was in the range of 0.01 to 10 nM.
As to `CN(C)CCNC(=O)C(=O)NC[C@@H](NC(=O)c1ccc(Nc2nc(NC3(c4ccc(Cl)cc4)CC3)nc(OCC(F)(F)F)n2)cc1)C(=O)O` [Compound 1045], the EC50 under setting [1] lay within 0.01 to 10 nM.
For the molecule `Cc1nnnn1-c1cc(Nc2nc(NC3(c4ccc(Cl)cc4)CC3)nc(OCC(F)(F)F)n2)ccc1C(=O)NCC(C)(C)CNC(=O)C(=O)Nc1ccc(F)cc1` [Compound 3552], under setting [4], the EC50 is 0.01 to 10 nM.
Turning to `COC(=O)[C@H](CNC(=O)C(=O)NCC1CCCN(C(=O)OC(C)(C)C)C1)NC(=O)c1ccc(Nc2nc(NC3(c4ccc(Cl)cc4)CC3)nc(OCC(F)(F)F)n2)cc1` (stereo partly drawn) [Compound 1452], the EC50 reads like this: under setting [3], 1.83 nM; under setting [1], 0.01 to 10 nM.
Take `O=C(NCC1CC1)C(=O)NC[C@H](NC(=O)c1ccc(Nc2nc(NC3(c4ccc(Cl)cc4)CC3)nc(OCC(F)(F)F)n2)cc1)C(=O)O` [Compound 1467]: the EC50 under setting [1] was 0.01 to 10 nM.
For `CCOC(=O)/C=C/c1cccc(NC(=O)C(=O)NCC(C)(C)CNC(=O)c2ccc(Nc3nc(NC4(c5ccc(Cl)cc5)CC4)nc(OCC(F)(F)F)n3)cc2)c1` [Compound 3407], the EC50 under setting [4] is 0.01 to 10 nM.
On to `O=C(NC[C@H](NC(=O)c1ccc(Nc2nc(NC3(c4ccc(Cl)cc4)CC3)nc(OCC(F)(F)F)n2)cc1)C(=O)O)C(=O)Nc1cccc(OC(F)(F)F)c1` [Compound 3749], for which, under setting [2], the EC50 fell in the range of 0.01 to 10 nM.
`Cn1nccc1NC(=O)C(=O)NC[C@H](NC(=O)c1ccc(Nc2nc(NC3(c4ccc(Cl)cc4)CC3)nc(OCC(F)(F)F)n2)cc1)C(=O)O` [Compound 1368]: the EC50 under setting [1] fell in the range of 0.01 to 10 nM.
With `O=C(NC[C@H](NC(=O)c1ccc(Nc2nc(NC3(c4ccc(Cl)cc4)CC3)nc(OCC(F)(F)F)n2)cc1)C(=O)O)C(=O)Nc1ccc(-n2cnnn2)cc1` [Compound 3276], the EC50 under setting [4] lay within 0.01 to 10 nM.
As to `COC(=O)[C@H](CCNC(=O)C(=O)Nc1ccc(C)cc1)NC(=O)c1ccc(Nc2nc(NC3(c4ccc(Cl)cc4)CC3)nc(OCC(F)(F)F)n2)cc1` [Compound 3217], the EC50 reads like this: (HCV pseudoparticles (genotype 1a, H77C) in Huh7 cells, average of duplicate, luciferase 2 days after infection) 0.087 nM; (read-out: Activity (EC50 class), HCV pseudoparticles (genotype 1a, H77C) in Huh7 cells, EC50 expressed as class A/B) 0.01 to 10 nM.
Take `O=C(NCCc1ccccc1)C(=O)NCC[C@H](NC(=O)c1ccc(Nc2nc(NC3(c4ccc(Cl)cc4)CC3)nc(OCC(F)(F)F)n2)cc1)C(=O)O` [Compound 1328]: the EC50 under setting [1] lay in the range of 0.01 to 10 nM.
As to `COc1cccc(-c2ccccc2NC(=O)C(=O)NCC(C)(C)CNC(=O)c2ccc(Nc3nc(NC4(c5ccc(Cl)cc5)CC4)nc(OCC(F)(F)F)n3)cc2)c1` [Compound 3049], the EC50 under setting [4] is 0.01 to 10 nM.
As for `CC(C)(C)CNC(=O)C(=O)NCC[C@H](NC(=O)c1ccc(Nc2nc(NC3(c4ccc(Cl)cc4)CC3)nc(OCC(F)(F)F)n2)cc1)C(=O)O` [Compound 1205], the EC50 under setting [1] fell in the range of 0.01 to 10 nM.
`COC(=O)[C@@H](CCNC(=O)C(=O)NCC1(COc2ccccc2)CC1)NC(=O)c1ccc(Nc2nc(NC3(c4ccc(Cl)cc4)CC3)nc(OCC(F)(F)F)n2)cc1` [Compound 1387]: under setting [1], the EC50 was in the range of 0.01 to 10 nM.
As for `Cc1cc(F)ccc1NC(=O)C(=O)NCC(C)(C)CNC(=O)c1ccc(Nc2nc(NC3(c4ccc(Cl)cc4)CC3)nc(OCC(F)(F)F)n2)cc1` [Compound 3061], the EC50 under setting [4] lay in the range of 0.01 to 10 nM.
Same read-out and setting: under `COC(=O)[C@H](CNC(=O)C(=O)Nc1ccc(C)cc1)NC(=O)c1ccc(Nc2nc(NC3(c4ccc(Cl)cc4)CC3)nc(OCC(F)(F)F)n2)cc1` [Compound 3085] stands 0.01 to 10 nM.
As to `O=C(NCC(O)CNC(=O)c1ccc(Nc2nc(NC3(c4ccc(Cl)cc4)CC3)nc(OCC(F)(F)F)n2)cc1)C(=O)Nc1cc(F)cc(F)c1` (stereo not drawn) [Compound 3461], the EC50 was 0.027 nM (Hepatitis C virus, Huh-7, 48 h, HCV pseudoparticles (genotype 1a, H77C) in Huh7 cells, average of duplicate, luciferase 2 days after infection) and 0.01 to 10 nM under setting [4].
Take `O=C(NCC[C@H](NC(=O)c1ccc(Nc2nc(NC3(c4ccc(Cl)cc4)CC3)nc(OCC(F)(F)F)n2)cc1)C(=O)O)C(=O)Nc1ccc(N2CCCC2)nc1` [Compound 3645]: under setting [2], the EC50 lay in the range of 0.01 to 10 nM.
`Cc1ccc(NC(=O)C(=O)NCC(C)(C)CNC(=O)c2ccc(Nc3nc(NC4(c5ccc(Cl)cc5)CC4)nc(OCC(F)(F)F)n3)cc2)cc1C` [Compound 3799]: the EC50 under setting [2] is 0.01 to 10 nM.
`COC(=O)[C@H](CCNC(=O)C(=O)NCc1ccc(OC)cc1)NC(=O)c1ccc(Nc2nc(NC3(c4ccc(Cl)cc4)CC3)nc(OCC(F)(F)F)n2)cc1` [Compound 1146]: under setting [1], the EC50 fell in the range of 0.01 to 10 nM.
`NC(=O)c1cccc(NC(=O)C(=O)NCC[C@H](NC(=O)c2ccc(Nc3nc(NC4(c5ccc(Cl)cc5)CC4)nc(OCC(F)(F)F)n3)cc2)C(=O)O)c1` [Compound 3615]: the EC50 under setting [2] lay in the range of 0.01 to 10 nM.
Consider `COC(=O)/C(CCNC(=O)C(=O)Nc1cccc(-c2ccncc2)c1)=N\C(=O)c1ccc(Nc2nc(NC3(c4ccc(Cl)cc4)CC3)nc(OCC(F)(F)F)n2)cc1` [Compound 3591], for which, under setting [4], the EC50 is 0.01 to 10 nM.
In the case of `CC(C)(C)C1CCC(NC(=O)C(=O)NC[C@H](NC(=O)c2ccc(Nc3nc(NC4(c5ccc(Cl)cc5)CC4)nc(OCC(F)(F)F)n3)cc2)C(=O)O)CC1` (stereo partly drawn) [Compound 1090], under setting [1], the EC50 was in the range of 0.01 to 10 nM.
For `COC(=O)/C(CCNC(=O)C(=O)Nc1cccc(C(C)(C)C)c1)=N\C(=O)c1ccc(Nc2nc(NC3(c4ccc(Cl)cc4)CC3)nc(OCC(F)(F)F)n2)cc1` [Compound 3586], the EC50 under setting [4] was 0.01 to 10 nM.
On the same count and under the same terms, under `CN(CCCN(C)C(=O)c1ccc(Nc2nc(NC3(c4ccc(Cl)cc4)CC3)nc(OCC(F)(F)F)n2)cc1)C(=O)C(=O)N1CCCCC1` [Compound 3432] stands 10 to 1000 nM.
Consider `COC(=O)[C@H](CNC(=O)C(=O)NCCc1ccc(OC)cc1)NC(=O)c1ccc(Nc2nc(NC3(c4ccc(Cl)cc4)CC3)nc(OCC(F)(F)F)n2)cc1` [Compound 1287], for which the EC50 under setting [1] was in the range of 0.01 to 10 nM.
Take `Cc1cccc(NC(=O)C(=O)NC[C@H](NC(=O)c2ccc(Nc3nc(NC4(c5ccc(Cl)cc5)CC4)nc(OCC(F)(F)F)n3)cc2)C(=O)Cl)c1` [Compound 3743]: the EC50 under setting [2] is 0.01 to 10 nM.
Consider `COC(=O)[C@H](CNC(=O)C(=O)Nc1cc[nH]n1)NC(=O)c1ccc(Nc2nc(NC3(c4ccc(Cl)cc4)CC3)nc(OCC(F)(F)F)n2)cc1` [Compound 1245], for which the EC50 reads like this: under setting [3], 1.69 nM; under setting [1], 0.01 to 10 nM.
In the case of `O=C(NCC1CC1)C(=O)NCC1(CNC(=O)c2ccc(Nc3nc(NC4(c5ccc(Cl)cc5)CC4)nc(OCC(F)(F)F)n3)cc2)CC1` [Compound 1493], the EC50 under setting [1] lay in the range of 0.01 to 10 nM.
Take `COc1cc(OC)nc(-c2ccc(NC(=O)C(=O)NCCC(NC(=O)c3ccc(Nc4nc(NC5(c6ccc(Cl)cc6)CC5)nc(OCC(F)(F)F)n4)cc3)C(=O)O)cc2)n1` (stereo not drawn) [Compound 3523]: under setting [4], the EC50 lay within 0.01 to 10 nM.
`CC(C)(CNC(=O)C(=O)Nc1ccc(F)c(F)c1)CNC(=O)c1ccc(Nc2nc(NC3(c4ccc(Cl)cc4)CC3)nc(OCC(F)(F)F)n2)cc1` [Compound 1556]: the EC50 under setting [1] fell in the range of 0.01 to 10 nM.
As to `O=C(NC[C@H](NC(=O)c1ccc(Nc2nc(NC3(c4ccc(Cl)cc4)CC3)nc(OCC(F)(F)F)n2)cc1)C(=O)O)C(=O)Nc1cccc(Cc2ccccc2)c1` [Compound 3770], the EC50 under setting [2] was in the range of 0.01 to 10 nM.
For `CN(C)CCOc1ccc(NC(=O)C(=O)NC[C@H](NC(=O)c2ccc(Nc3nc(NC4(c5ccc(Cl)cc5)CC4)nc(OCC(F)(F)F)n3)cc2)C(=O)Cl)cn1` [Compound 3790], the EC50 under setting [2] fell in the range of 0.01 to 10 nM.
For the molecule `COC(=O)[C@H](CCNC(=O)C(=O)Nc1cnn(C)c1)NC(=O)c1ccc(Nc2nc(NC3(c4ccc(Cl)cc4)CC3)nc(OCC(F)(F)F)n2)cc1` [Compound 1226], the EC50 under setting [1] is 0.01 to 10 nM.
For the molecule `COC(=O)[C@H](CCNC(=O)C(=O)Nc1ccc(Cn2cccn2)cc1)NC(=O)c1ccc(Nc2nc(NC3(c4ccc(Cl)cc4)CC3)nc(OCC(F)(F)F)n2)cc1` [Compound 3312], under setting [4], the EC50 was 0.01 to 10 nM.
With `COC(=O)[C@H](CNC(=O)C(=O)Nc1cccc(-n2cnnc2)c1)NC(=O)c1ccc(Nc2nc(NC3(c4ccc(Cl)cc4)CC3)nc(OCC(F)(F)F)n2)cc1` [Compound 3729], the EC50 under setting [2] was in the range of 0.01 to 10 nM.
With `CC(C)[C@@H]1CC[C@@H](C)C[C@H]1NC(=O)C(=O)NC[C@H](NC(=O)c1ccc(Nc2nc(NC3(c4ccc(Cl)cc4)CC3)nc(OCC(F)(F)F)n2)cc1)C(=O)O` [Compound 1095], under setting [1], the EC50 was in the range of 0.01 to 10 nM.
The same measure, in the same setting: under `COC(=O)[C@H](CCNC(=O)C(=O)NCc1ccc(OC)c(OC)c1)NC(=O)c1ccc(Nc2nc(NC3(c4ccc(Cl)cc4)CC3)nc(OCC(F)(F)F)n2)cc1` [Compound 1144] stands 0.01 to 10 nM; under `COC(=O)[C@H](CNC(=O)C(=O)NC1CCCCCCC1)NC(=O)c1ccc(Nc2nc(NC3(c4ccc(Cl)cc4)CC3)nc(OCC(F)(F)F)n2)cc1` [Compound 1068], 0.01 to 10 nM.
For `O=C(NCC[C@@H](NC(=O)c1ccc(Nc2nc(NC3(c4ccc(Cl)cc4)CC3)nc(OCC(F)(F)F)n2)cc1)C(=O)O)C(=O)Nc1ccc(-c2ccccc2)cc1` [Compound 1557], the EC50 under setting [1] was 0.01 to 10 nM.
Still for that read-out and setting: under `O=C(NCC[C@H](NC(=O)c1ccc(Nc2nc(NC3(c4ccc(Cl)cc4)CC3)nc(OCC(F)(F)F)n2)cc1)C(=O)O)C(=O)NCc1cccc(F)c1F` [Compound 1177] stands 0.01 to 10 nM.
